The values that follow come from paper PMC6369673, “Silent catalytic promiscuity in the high-fidelity terpene cyclase δ-cadinene synthase” (Organic & Biomolecular Chemistry, 2019).

Series [1] deals with T1, amorpha-4,11-diene synthase (ADS) (Artemisia annua, UniProt Q9AR04).
T1 construct: made in house
As to the kind of experiment: Inhibition of amorpha-4,11-diene synthase, radiolabelled FDP assay. Type of series: biochemical. How it is done: (§1) Recombinant AS and ADS were prepared and purified according to previously published procedures[17],[18] and both (R)-11 and (S)-11 were tested as inhibitors using a standard radiolabelled assay involving conversion of tritium labelled FDP by each enzyme and scintillation counting of the pentane extractable products.[5b] Terpene synthases are known to efficiently bind cation-PPi pairs and inhibition was assessed both in the presence and absence of 250 μM diphosphate (Table 1). Synergistic inhibition of aza-analogues 11 with diphosphate has been observed previously for a variety of other terpene synthases.[5d],[13c],[14]
(§2) Kinetic data were fitted by non-linear regression to the Michaelis–Menten equation (v0 = kcat[E][S]/(KM + [S]). The mode of inhibition was determined by inspection of double reciprocal plots and observed to be competitive in all cases where inhibition was significant at low concentrations of 11. KI was determined from a plot of inhibitor concentration versus K′M/(kcat[E]) where K′M = KM(1 + [I]/KI). […]
(§3) 2. Steady-state kinetics of DCS-His6, ADS and AS.
(§4) Kinetic assays were carried out according to the standard, linear range, micro-assay procedure previously described.5 The reaction mixtures containing buffer, FDP and protein were prepared on ice in a total volume of 250 µL and were overlaid with ca. 0.8 mL of HPLC-grade hexane prior to incubation. The assay mixtures were initiated by addition of enzyme and incubated at room temp (30 °C) for 10 min. The reactions were immediately ice-cooled and quenched by addition of 200 µL of 100 mM EDTA (pH 8.5) and brief vortexing. The hexane overlay and two additional 1 mL hexane extracts were passed through a short pipette column containing silica gel. The column was washed with additional hexane (1 mL) and the combined filtrates were analysed by liquid scintillation counting using 15 mL of scintillation cocktail Ecoscint O. Steady-State kinetic parameters for DCS-His6 and mutants were obtained by direct fitting of the data to the Michaelis-Menten equation by nonlinear least squares regression in conjunction with the graphical procedures developed by Lineweaver-Burk using the commercial SigmaPlot package (Systat Software).

For series [2], the target named is T2, aristolochene synthase from Penicillium roqueforti (AS) (Penicillium roqueforti, UniProt Q03471).
T2 construct: made in house
The series can be described thus: Inhibition of aristolochene synthase, radiolabelled FDP assay. Type of series: biochemical. Here is the method: as §1, §2, §3, §4

In series [3] the target is T3, δ-cadinene synthase (DCS-His6) (Gossypium arboreum, UniProt Q39761).
T3 construct: hexahistidine (His6) (C); made in house; host or cells: E. coli BL-21 (DE3)
T3 sequence (Q39761 1-554): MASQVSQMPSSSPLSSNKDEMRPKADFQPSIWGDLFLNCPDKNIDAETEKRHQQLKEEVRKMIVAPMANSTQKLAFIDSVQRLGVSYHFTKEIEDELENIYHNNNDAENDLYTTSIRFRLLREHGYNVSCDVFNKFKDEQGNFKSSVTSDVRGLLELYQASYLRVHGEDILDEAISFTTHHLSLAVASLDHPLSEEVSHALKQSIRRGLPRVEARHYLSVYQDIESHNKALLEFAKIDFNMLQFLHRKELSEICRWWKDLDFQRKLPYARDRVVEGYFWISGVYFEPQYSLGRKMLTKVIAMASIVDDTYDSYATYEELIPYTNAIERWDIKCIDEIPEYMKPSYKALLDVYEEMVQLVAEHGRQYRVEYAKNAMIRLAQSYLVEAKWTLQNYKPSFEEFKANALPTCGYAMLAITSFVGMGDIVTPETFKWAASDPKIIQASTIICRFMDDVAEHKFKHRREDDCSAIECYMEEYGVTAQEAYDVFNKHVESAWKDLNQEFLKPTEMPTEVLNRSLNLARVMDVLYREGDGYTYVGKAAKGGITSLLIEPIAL
The series can be described thus: Inhibition of δ-cadinene synthase, radiolabelled FDP assay. Type of series: biochemical. How it is done:
as §1
Kinetic data were fitted by non-linear regression to the Michaelis–Menten equation (v0 = kcat[E][S]/(KM + [S]). The mode of inhibition was determined by inspection of double reciprocal plots and observed to be competitive in all cases where inhibition was significant at low concentrations of 11. KI was determined from a plot of inhibitor concentration versus K′M/(kcat[E]) where K′M = KM(1 + [I]/KI).
Recombinant DCS was generated with a C-terminal hexahistidine tag (DCS-His6) as previously described.[19] Inhibition assays were carried out using the same protocol used for AS and ADS. […] DCS clearly requires a cation–anion pair in its active site for effective inhibition by aza-analogues. Our results provide strong evidence for 1,6-cyclase activity for DCS. […]
as §3, §4

The target in series [4] is DCS. Also on record: method as in PMID 22397618. Particulars: cited from earlier work.
[5] abbreviates: +250 μM PPi, read-out: K i (μM) (+250 μM PPi).
Setting [6] is: K i (μM) (+250 μM PPi), +250 μM PPi.

Structures can show the parent of a compound that is named as a salt. Where two headings read alike, the source gives them in different places.

T2 sequence (Q03471 whole entry): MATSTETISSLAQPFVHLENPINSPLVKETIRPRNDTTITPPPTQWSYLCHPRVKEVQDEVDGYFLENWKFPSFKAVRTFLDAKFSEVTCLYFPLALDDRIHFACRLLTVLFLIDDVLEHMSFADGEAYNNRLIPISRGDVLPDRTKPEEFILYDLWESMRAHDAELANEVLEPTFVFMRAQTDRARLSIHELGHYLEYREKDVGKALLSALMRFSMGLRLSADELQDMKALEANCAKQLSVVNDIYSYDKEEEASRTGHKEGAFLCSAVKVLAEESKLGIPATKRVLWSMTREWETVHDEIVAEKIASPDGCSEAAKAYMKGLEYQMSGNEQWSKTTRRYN
T1 sequence (Q9AR04 whole entry): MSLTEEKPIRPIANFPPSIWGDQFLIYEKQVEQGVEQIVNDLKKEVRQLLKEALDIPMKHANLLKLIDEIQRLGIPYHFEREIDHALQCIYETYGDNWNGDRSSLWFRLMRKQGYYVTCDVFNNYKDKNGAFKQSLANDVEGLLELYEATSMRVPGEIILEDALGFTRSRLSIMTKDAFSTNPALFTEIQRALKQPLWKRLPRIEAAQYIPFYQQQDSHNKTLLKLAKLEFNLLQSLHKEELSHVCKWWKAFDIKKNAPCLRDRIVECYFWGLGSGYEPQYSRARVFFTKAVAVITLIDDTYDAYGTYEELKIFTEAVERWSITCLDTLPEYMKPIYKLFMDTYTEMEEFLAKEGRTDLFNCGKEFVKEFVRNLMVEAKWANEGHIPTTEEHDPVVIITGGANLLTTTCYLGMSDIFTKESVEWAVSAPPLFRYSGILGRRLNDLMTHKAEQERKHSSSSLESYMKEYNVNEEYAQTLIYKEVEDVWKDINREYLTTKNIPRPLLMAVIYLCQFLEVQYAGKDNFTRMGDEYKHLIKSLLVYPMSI

Consider `CC(C)=CCCN(C)[C@@H]1CC=C(C)CC1` [(S)-11], for which the Ki in series [1] (setting [5]) worked out at 1.5 ± 0.5 µM; in series [1] (absence of PPi, read-out: K i), 25 ± 5 µM; in series [2] (setting [6]), 255 ± 23 µM; in series [2] (K i (μM), absence of PPi), 295 ± 23 µM; in series [3] (setting [5]) it was 3.44 ± 1.43 µM; in series [3] (absence of PPi, read-out: K i) it was 273 ± 77 µM.

As for `CC(C)=CCCN(C)[C@H]1CC=C(C)CC1` [(R)-11], the Ki in series [1] (setting [5]) came out at 3.7 ± 1.9 µM; in series [1] (absence of PPi, read-out: K i), 50 ± 17 µM; in series [2] (setting [6]), 489 ± 62 µM; in series [2] (K i (μM), absence of PPi), 472 ± 48 µM; in series [3] (setting [5]), 2.5 ± 0.5 µM; in series [3] (absence of PPi, read-out: K i), 1700 ± 300 µM. In addition, the Inhibition in words result in series [3] (in the absence of PPi) is given as “weak inhibitor”.

`CC(C)=CCCC(C)=C(F)CCC(C)=CCOP(=O)(O)OP(=O)(O)O` [6F-FDP, 6-fluorofarnesyl diphosphate]: the Ki in series [4] (DCS, 6F-FDP as substrate analogue) was 2.4 µM. In series [4] (pentane-extractable products), the “Products when incubated with DCS” value is reported as “no detectable pentane-extractable products”.

On to `CC(C)=CCCN(C)[C@@H]1CC=C(C)CC1` (as salt: hydrochloride) [(S)-11], for which the melting point (in general, the temperature of the solid-liquid transition) was in the range of 131 to 133 °C.
